Results published in PMC10052868 (European journal of medicinal chemistry, 2022).
Entries after “also recorded” stand apart in the source; their conditions may differ. Structures can show the parent of a compound that is named as a salt.

Target: PfPK6 (Plasmodium falciparum, UniProt Q8IDW1)
Assay: KinaseSeeker split-luciferase assay on PfPK6
Type: binding, P. falciparum
Settings: not given

| SMILES | IC50 [nM] |
| --- | --- |
| COc1cc2nccc(Oc3ccc(NC(=O)Nc4cccc(C(F)(F)F)c4)c(F)c3)c2cc1OC [Compound 39, 1-(4-((6,7-dimethoxyquinolin-4-yl)oxy)-2-fluorophenyl)-3-(3-(trifluoromethyl)phenyl)urea] | < 5 |

Same assay, conditions: KinaseSeeker, 1 μM

| SMILES | activity against PfPK6 in words |
| --- | --- |
| O=C(Nc1ccc(O)cc1F)Nc1ccc(F)cc1F [Compound 5, 1-(2,4-difluorophenyl)-3-(2-fluoro-4-hydroxyphenyl)urea] | completely inactive |
| COc1ccc(NC(=O)Nc2ccc(F)cc2F)c(F)c1 [Compound 6, 1-(2,4-difluorophenyl)-3-(2-fluoro-4-methoxyphenyl)urea] | completely inactive |
| COc1cc2nccc(Oc3ccc(N)c(F)c3)c2cc1OC [Compound 14, 4-((6,7-dimethoxyquinolin-4-yl)oxy)-2-fluoroaniline] | complete loss of activity |
| COc1cc2nccc(Oc3ccc(N)cc3)c2cc1OC [Compound 15, 4-((6,7-dimethoxyquinolin-4-yl)oxy)aniline] | complete loss of activity |
| O=C(Nc1ccc(F)cc1F)Nc1ccc(Oc2cnnc3ccccc23)cc1F [Compound 24, 1-(4-(cinnolin-4-yloxy)-2-fluorophenyl)-3-(2,4-difluorophenyl)urea] | complete loss of potency |

Same assay, conditions: compared to 41

| SMILES | fold drop in activity against PfPK6 compared to 41 [fold] |
| --- | --- |
| COc1cc2nccc(Oc3ccc(NC(=O)Nc4ccc(N5CCN(C)CC5)cc4)c(F)c3)c2cc1OC [Compound 59, 1-(4-((6,7-dimethoxyquinolin-4-yl)oxy)-2-fluorophenyl)-3-(4-(4-methylpiperazin-1-yl)phenyl)urea] | 30 |
| COc1cc2nccc(Oc3ccc(NC(=O)Nc4ccc(NC5CCN(C)CC5)cc4)c(F)c3)c2cc1OC [Compound 65, 1-(4-((6,7-dimethoxyquinolin-4-yl)oxy)-2-fluorophenyl)-3-(4-((1-methylpiperidin-4-yl)amino)phenyl)urea] | 12 |

Same assay, conditions: compared to Ki8751

| SMILES | fold drop in potency against PfPK6 relative to Ki8751 [fold] | fold increase in potency against PfPK6 compared to Ki8751 [fold] |
| --- | --- | --- |
| COc1ccc2c(Oc3ccc(NC(=O)Nc4ccc(F)cc4F)c(F)c3)ccnc2c1 [Compound 1, 1-(2,4-difluorophenyl)-3-(2-fluoro-4-((7-methoxyquinolin-4-yl)oxy)phenyl)urea] | 3 |  |
| COc1ccc2nccc(Oc3ccc(NC(=O)Nc4ccc(F)cc4F)c(F)c3)c2c1 [Compound 2, 1-(2,4-difluorophenyl)-3-(2-fluoro-4-((6-methoxyquinolin-4-yl)oxy)phenyl)urea] | 15 |  |
| O=C(Nc1ccc(F)cc1F)Nc1ccc(Oc2ccnc3ccccc23)cc1F [Compound 3, 1-(2,4-difluorophenyl)-3-(2-fluoro-4-(quinolin-4-yloxy)phenyl)urea] | 34 |  |
| COc1cc2nccc(Oc3ccc(NC(=O)Nc4ccccc4F)c(F)c3)c2cc1OC [Compound 7, 1-(4-((6,7-dimethoxyquinolin-4-yl)oxy)-2-fluorophenyl)-3-(2-fluorophenyl)urea] |  | ≥ 3 |
| COc1cc2nccc(Oc3ccc(NC(=O)Nc4ccc(F)cc4)c(F)c3)c2cc1OC [Compound 8, 1-(4-((6,7-dimethoxyquinolin-4-yl)oxy)-2-fluorophenyl)-3-(4-fluorophenyl)urea] |  | ≥ 3 |
| COc1cc2nccc(Oc3ccc(NC(=O)Nc4ccccc4)c(F)c3)c2cc1OC [Compound 9, 1-(4-((6,7-dimethoxyquinolin-4-yl)oxy)-2-fluorophenyl)-3-phenylurea] |  | ≥ 3 |

Same assay, conditions: compared to quinoline 3

| SMILES | fold improvement in PfPK6 potency on replacing the quinoline [fold] |
| --- | --- |
| O=C(Nc1ccc(F)cc1F)Nc1ccc(Oc2ccnc3[nH]ccc23)cc1F [Compound 29, 1-(4-((1H-pyrrolo[2,3-b]pyridin-4-yl)oxy)-2-fluorophenyl)-3-(2,4-difluorophenyl)urea] | 4 |

Same assay, conditions: read-out: PfPK6 activity remaining at 1 μM (%)

| SMILES | remaining activity at 1 µM [%] |
| --- | --- |
| O=C(Nc1ccc(O)cc1F)Nc1ccc(F)cc1F [Compound 5, 1-(2,4-difluorophenyl)-3-(2-fluoro-4-hydroxyphenyl)urea] | 100 |
| COc1ccc(NC(=O)Nc2ccc(F)cc2F)c(F)c1 [Compound 6, 1-(2,4-difluorophenyl)-3-(2-fluoro-4-methoxyphenyl)urea] | 100 |
| COc1cc2nccc(Oc3ccc(N)c(F)c3)c2cc1OC [Compound 14, 4-((6,7-dimethoxyquinolin-4-yl)oxy)-2-fluoroaniline] | 100 |
| O=C(Nc1ccc(F)cc1F)Nc1ccc(Oc2cnnc3ccccc23)cc1F [Compound 24, 1-(4-(cinnolin-4-yloxy)-2-fluorophenyl)-3-(2,4-difluorophenyl)urea] | 100 |

Test system: P. falciparum 3D7
Assay: P. falciparum asexual blood stage viability assay
Type: cell-based
Settings: Inactive = no inhibition when tested in triplicate at a single concentration of 1 μM

| SMILES | Pf3D7 blood stage activity at single concentration |
| --- | --- |
| COc1cc2nccc(Oc3ccc(NC(=O)Nc4cccc(CN5CCN(C)CC5)c4)c(F)c3)c2cc1OC [Compound 42, 1-(4-((6,7-dimethoxyquinolin-4-yl)oxy)-2-fluorophenyl)-3-(3-((4-methylpiperazin-1-yl)methyl)phenyl)urea diformate] | loss of P. falciparum blood stage activity; also recorded: Inactive^e |
| COc1cc2nccc(Oc3ccc(NC(=O)Nc4ccc(C(=O)N5CCN(C)CC5)cc4)c(F)c3)c2cc1OC [Compound 43, 1-(4-((6,7-dimethoxyquinolin-4-yl)oxy)-2-fluorophenyl)-3-(4-(4-methylpiperazine-1-carbonyl)phenyl)urea] | did not observe antiplasmodial activity; also recorded: Inactive^e |
| COc1cc2nccc(Oc3ccc(NC(=O)Nc4cccc(C(=O)N5CCN(C)CC5)c4)c(F)c3)c2cc1OC [Compound 44, 1-(4-((6,7-dimethoxyquinolin-4-yl)oxy)-2-fluorophenyl)-3-(3-(4-methylpiperazine-1-carbonyl)phenyl)urea] | did not observe antiplasmodial activity; also recorded: Inactive^e |
| COc1cc2nccc(Oc3ccc(NC(=O)Nc4ccc(C(=O)N5CCN(C)CC5)c(C(F)(F)F)c4)c(F)c3)c2cc1OC [Compound 47, 1-(4-((6,7-dimethoxyquinolin-4-yl)oxy)-2-fluorophenyl)-3-(4-(4-methylpiperazine-1-carbonyl)-3-(trifluoromethyl)phenyl)urea] | Inactive^e |
| COc1cc2nccc(Oc3ccc(NC(=O)Nc4cc(C(=O)N5CCN(C)CC5)cc(C(F)(F)F)c4)c(F)c3)c2cc1OC [Compound 48, 1-(4-((6,7-dimethoxyquinolin-4-yl)oxy)-2-fluorophenyl)-3-(3-(4-methylpiperazine-1-carbonyl)-5-(trifluoromethyl)phenyl)urea formate] | Inactive^e |
| COc1cc2nccc(Oc3ccc(NC(=O)Nc4cccc(Br)c4)c(F)c3)c2cc1OC [Compound 50, 1-(3-bromophenyl)-3-(4-((6,7-dimethoxyquinolin-4-yl)oxy)-2-fluorophenyl)urea] | Inactive^d |
| COc1cc2nccc(Oc3ccc(NC(=O)Nc4cccc(C(C)C)c4)c(F)c3)c2cc1OC [Compound 52, 1-(4-((6,7-dimethoxyquinolin-4-yl)oxy)-2-fluorophenyl)-3-(3-isopropylphenyl)urea] | Inactive^d |
| COc1cccc(NC(=O)Nc2ccc(Oc3ccnc4cc(OC)c(OC)cc34)cc2F)c1 [Compound 54, 1-(4-((6,7-dimethoxyquinolin-4-yl)oxy)-2-fluorophenyl)-3-(3-methoxyphenyl)urea] | Inactive^d |
| COc1cc2nccc(Oc3ccc(NC(=O)Nc4cccc(OC(C)C)c4)c(F)c3)c2cc1OC [Compound 55, 1-(4-((6,7-dimethoxyquinolin-4-yl)oxy)-2-fluorophenyl)-3-(3-isopropoxyphenyl)urea] | Inactive^d |
| COc1cc2nccc(Oc3ccc(NC(=O)Nc4cccc(OC(F)F)c4)c(F)c3)c2cc1OC [Compound 56, 1-(3-(difluoromethoxy)phenyl)-3-(4-((6,7-dimethoxyquinolin-4-yl)oxy)-2-fluorophenyl)urea] | Inactive^d |
| COc1cc2nccc(Oc3ccc(NC(=O)Nc4cccc(C#N)c4)c(F)c3)c2cc1OC [Compound 58, 1-(3-cyanophenyl)-3-(4-((6,7-dimethoxyquinolin-4-yl)oxy)-2-fluorophenyl)urea] | Inactive^d |
| COc1cc2nccc(Oc3ccc(NC(=O)Nc4ccc(CN5CCOCC5)cc4)c(F)c3)c2cc1OC [Compound 60, 1-(4-((6,7-dimethoxyquinolin-4-yl)oxy)-2-fluorophenyl)-3-(4-(morpholinomethyl)phenyl)urea] | Inactive^c |

Same assay, conditions: compared to parent compound without meta group (64, 66, 67 or 68)

| SMILES | fold improvement in P. falciparum blood stage potency on adding CF3 or OCF3 [fold] |
| --- | --- |
| COc1cc2nccc(Oc3ccc(NC(=O)Nc4ccc(OC5CCN(C)CC5)c(OC(F)(F)F)c4)c(F)c3)c2cc1OC [Compound 76, 1-(4-((6,7-dimethoxyquinolin-4-yl)oxy)-2-fluorophenyl)-3-(4-((1-methylpiperidin-4-yl)oxy)-3-(trifluoromethoxy)phenyl)urea] | 4 |
| COc1cc2nccc(Oc3ccc(NC(=O)Nc4ccc(N(C)C5CCN(C)CC5)c(C(F)(F)F)c4)c(F)c3)c2cc1OC [Compound 77, 1-(4-((6,7-dimethoxyquinolin-4-yl)oxy)-2-fluorophenyl)-3-(4-(methyl(1-methylpiperidin-4-yl)amino)-3-(trifluoromethyl)phenyl)urea] | 2 |
| COc1cc2nccc(Oc3ccc(NC(=O)Nc4ccc(CC5CCNCC5)c(OC(F)(F)F)c4)c(F)c3)c2cc1OC [Compound 80, 1-(4-((6,7-dimethoxyquinolin-4-yl)oxy)-2-fluorophenyl)-3-(4-(piperidin-4-ylmethyl)-3-(trifluoromethoxy)phenyl)urea] | 2 |
| COc1cc2nccc(Oc3ccc(NC(=O)Nc4ccc(C=C5CCNCC5)c(C(F)(F)F)c4)c(F)c3)c2cc1OC [Compound 81, 1-(4-((6,7-dimethoxyquinolin-4-yl)oxy)-2-fluorophenyl)-3-(4-(piperidin-4-ylidenemethyl)-3-(trifluoromethyl)phenyl)urea] | 2 |
